Test results published in patent publication US20210085582A1, “SYNERGISTIC ANTIOXIDANT ACID COMPOUND ASSOCIATIONS” (L'OREAL, priority 2019, published 2021).

Experiment: oxygen radical absorbance capacity (ORAC) assay, antioxidant (AOX) strength testing
Settings: 0.5% ferulic acid, 0.5% salicylic acid
Description: The peroxyl radical, generated from the thermal decomposition of 2,2'-azobis-2-methyl-propanimidamide dihydrochloride (AAPH), will quench a fluorescent probe by a hydrogen atom transfer reaction. In the presence of an antioxidant, however, the molecule will initially block or prevent the quenching of the probe, causing a delay in the fluorescence decay profile. The area under the fluorescence decay curves for samples with and without the presence of an antioxidant are compared to that of a standard reference material and the peroxyl radical antioxidant capacity is determined. References disclosing ORAC assays include Cao G, Alessio H, Cutler R (1993). “Oxygen-radical absorbance capacity assay for antioxidants”. Free Radic Biol Med 14 (3): 303-11; Ou B, Hampsch-Woodill M, Prior R (2001). “Development and validation of an improved oxygen radical absorbance capacity assay using fluorescein as the fluorescent probe”. J Agric Food Chem 49 (10): 4619-26; Huang D, Ou B, Prior R (2005). “The chemistry behind antioxidant capacity assays”. J. Agric. Food Chem. 53 (6): 1841-56; and Garrett A R, Murray B K, Robison […] (2010). “Measuring antioxidant capacity using the ORAC and TOSC assays”. Advanced Protocols in Oxidative Stress II: Methods in Molecular Biology (series), Donald J Armstrong (ed) 594: 251-62.

For `O=C(O)c1cc(O)c(O)c(O)c1` [gallic acid, 3,4,5-trihydroxybenzoic acid], the “effect on overall antioxidant capacity of the association” value (1% gallic acid added to 15% ascorbic acid) was “modest” and the “effect on overall antioxidant capacity of the association” value (5% gallic acid added to 15% ascorbic acid) was “significant”.
In the case of `O=C1CC[C@@H](C(=O)[O-])N1.O=C1CC[C@@H](C(=O)[O-])N1.[Zn+2]` [Zinc PCA], the “contribution to antioxidant potential of the association” value (Zinc PCA 0.5% added to compositions with 15% ascorbic acid) is reported as “not found to be a contributing factor”.
